The record followed here is patent publication US8883782B2, “Spiro-tetracyclic ring compounds as beta-secretase modulators and methods of use” (Amgen Inc., priority 2010, dated 2014).

In experiment [1] the test system is Aβ40 in conditioned medium of cells stably expressing Amyloid Precursor Protein (APP). In words: In vitro BACE cell-based assay (Aβ40 in conditioned medium, sandwich ELISA). Conditions: Homo sapiens. Summed up:
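Secreted Aβ40 is captured with pAb40 and detected with biotinylated 6E10, read by europium time-resolved fluorescence. IC50 comes from percent inhibition versus concentration.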
A general note: ELISA stands for enzyme-linked immunosorbent assay.

Experiment [2] addresses Beta Secretase enzyme (BACE) (Homo sapiens, UniProt P56817). In words: In vitro enzymatic BACE FRET (fluorescence resonance energy transfer) assay. The class given is biochemical. Conditions: average IC50, enzyme assay. An outline of the steps:
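Buffer 0.05 M acetate pH 4.2, 10% DMSO final, 100 uM genapol (sub-CMC); start with 50 nM FRET substrate; 1 h incubation; Tris stop; fluorescence read.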

Setting [3] is: HEK293, average IC50, read-out: HEK cell assay.
[4] abbreviates: HEK293, average IC50, HEK cells, read-out: HEK cell assay.

Read-outs that look alike come from different tables or passages of the source.

Sequence of Beta Secretase enzyme (BACE) (P56817 46-501, species assumed): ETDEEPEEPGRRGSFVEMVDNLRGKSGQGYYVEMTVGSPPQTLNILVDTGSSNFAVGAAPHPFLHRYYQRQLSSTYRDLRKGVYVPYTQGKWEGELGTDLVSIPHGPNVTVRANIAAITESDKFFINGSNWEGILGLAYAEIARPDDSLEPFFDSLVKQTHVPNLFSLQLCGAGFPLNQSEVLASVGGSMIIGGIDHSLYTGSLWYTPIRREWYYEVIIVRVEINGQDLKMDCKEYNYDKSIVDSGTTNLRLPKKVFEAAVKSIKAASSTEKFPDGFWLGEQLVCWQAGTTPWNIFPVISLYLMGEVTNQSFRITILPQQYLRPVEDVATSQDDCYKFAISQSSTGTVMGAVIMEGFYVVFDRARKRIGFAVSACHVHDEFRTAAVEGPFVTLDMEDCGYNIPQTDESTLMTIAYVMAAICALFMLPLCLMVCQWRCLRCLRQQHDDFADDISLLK

Take `NC1=N[C@@]2(CO1)c1cc(-c3cccnc3F)ccc1Oc1cnc([C@@H]3CCCOC3)cc12` [Example 382, (5S)-7-(2-fluoro-3-pyridinyl)-3-((3S)-tetrahydro-2H-pyran-3-yl)spiro[chromeno[2,3-c]pyridine-5,4′-[1,3]oxazol]-2′-amine]: the IC50 stood at 0.123 µM in experiment [1] (HEK293, read-out: HEK cell assay (uM)) and 0.0113 µM in experiment [2] (BACE 1 FRET assay (uM)).
Regarding `NC1=N[C@@]2(CO1)c1cc(-c3cccnc3F)ccc1Oc1c(F)cc(C3=CCOC3)cc12` [Example 291, (4S)-2′-(2,5-dihydro-3-furanyl)-4′-fluoro-7′-(2-fluoro-3-pyridinyl)spiro[1,3-oxazole-4,9′-xanthen]-2-amine], the values for the IC50 in experiment [1] (setting [3]) and in experiment [2] (read-out: BACE 1 FRET assay) were 0.008 µM and 0.0006 µM, respectively.
With `NC1=N[C@@]2(CO1)c1cc(-c3cccnc3)c(F)cc1Oc1c(F)cc(N3CCOCC3)cc12` [Example 861, (4S)-3′,5′-difluoro-7′-(4-morpholinyl)-2′-(3-pyridinyl)spiro[1,3-oxazole-4,9′-xanthen]-2-amine], the IC50 in experiment [1] (setting [4]) is 0.015 µM; in experiment [2] (read-out: BACE 1 FRET assay), 0.001 µM.
In the case of `NC1=N[C@@]2(CO1)c1cc(-c3cccnc3F)ccc1Oc1c2ccnc1F` [Example 658, (5S)-1-fluoro-7-(2-fluoro-3-pyridinyl)spiro[chromeno[2,3-c]pyridine-5,4′-[1,3]oxazol]-2′-amine], the IC50 in experiment [1] (setting [4]) came to 0.846 µM; in experiment [2] (read-out: BACE 1 FRET assay) it was 0.0272 µM.
For `Cc1ccc(-c2cnc3c(c2)[C@]2(CSC(N)=N2)c2cc(C#CC4(C)COC4)ccc2O3)cn1` [Example 940, (5S)-7-((3-methyl-3-oxetanyl)ethynyl)-3-(6-methyl-3-pyridinyl)spiro[chromeno[2,3-b]pyridine-5,4′-[1,3]thiazol]-2′-amine], the results for the IC50 in experiment [1] (setting [4]) and in experiment [2] (read-out: BACE 1 FRET assay) were 0.06 µM and 0.0054 µM, respectively.
Take `NC1=N[C@@]2(CO1)c1cc(-c3cccnc3F)ccc1Oc1c(F)cc(N3CC4(CCCOC4)C3)cc12` [Example 856, (4S)-4′-fluoro-7′-(2-fluoro-3-pyridinyl)-2′-(6-oxa-2-azaspiro[3.5]non-2-yl)spiro[1,3-oxazole-4,9′-xanthen]-2-amine]: the IC50 in experiment [1] (setting [4]) is 0.004 µM; in experiment [2] (read-out: BACE 1 FRET assay), 0.0006 µM.
Consider `COc1ccc2c(c1)C1(COC(N)=N1)c1cc(N3CCC(F)(F)C3)ncc1O2` (stereo not shown) [Example 431, 3-(3,3-difluoro-1-pyrrolidinyl)-7-methoxyspiro[chromeno[2,3-c]pyridine-5,4′-[1,3]oxazol]-2′-amine], for which the IC50 was 10 µM in experiment [1] (setting [4]) and 1.73 µM in experiment [2] (read-out: BACE 1 FRET assay).
Regarding `Cn1ccc(-c2cnc3c(c2)[C@]2(COC(N)=N2)c2cc(C#CC4CC4)ccc2O3)n1` [Example 183, (5S)-7-(cyclopropylethynyl)-3-(1-methyl-1H-pyrazol-3-yl)spiro[chromeno[2,3-b]pyridine-5,4′-[1,3]oxazol]-2′-amine], the IC50 came to 0.189 µM in experiment [1] (setting [3]) and 0.0515 µM in experiment [2] (read-out: BACE 1 FRET assay).
On to `NC1=N[C@@]2(CO1)c1cc(-c3ccc(F)nc3)ccc1Oc1c(F)cc(C3CCOCC3)cc12` [Example 301, (4S)-4′-fluoro-7′-(6-fluoro-3-pyridinyl)-2′-(tetrahydro-2H-pyran-4-yl)spiro[1,3-oxazole-4,9′-xanthen]-2-amine], for which the IC50 in experiment [1] (setting [3]) came out at 0.0159 µM; in experiment [2] (read-out: BACE 1 FRET assay) it was 0.0048 µM.
With `CC(C)(C)/C=C/c1ccc2c(c1)[C@]1(COC(N)=N1)c1cc(-c3cncnc3)ncc1O2` [Example 384, (5R)-7-((1E)-3,3-dimethyl-1-buten-1-yl)-3-(5-pyrimidinyl)spiro[chromeno[2,3-c]pyridine-5,4′-[1,3]oxazol]-2′-amine], the IC50 amounted to 0.084 µM in experiment [1] (setting [4]) and 0.004 µM in experiment [2] (read-out: BACE 1 FRET assay).
As to `NC1=N[C@@]2(CO1)c1cc(-c3cccnc3F)ccc1Oc1c(F)cc(C3=C(Cl)COCC3)cc12` [Example 805, (4S)-2′-(5-chloro-3,6-dihydro-2H-pyran-4-yl)-4′-fluoro-7′-(2-fluoro-3-pyridinyl)spiro[1,3-oxazole-4,9′-xanthen]-2-amine], the IC50 in experiment [1] (setting [3]) was 0.003 µM; in experiment [2] (read-out: BACE 1 FRET assay), 0.0002 µM.
